Measured values reported in the supplement of paper PMC10307832.

Tests used:
Experiment in all cases: relative viability (nuclei count vs DMSO), 5 days (fraction); higher = more cells survive
[1] = compound: C1CN(CCN1)C2=CC=C(C=C2)C3=CN4C(=C(C=N4)C5=CC=NC6=CC=CC=C56)N=C3 [DM3189] + Cc1nc(NC(=O)N2CCC[C@H]2C(N)=O)sc1-c1ccnc(C(C)(C)C(F)(F)F)c1 [Alpelisib] (partner 2 µM)
Procedure, shortened: (§1)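 Relative viability was taken as the ratio of nuclei in treated wells to nuclei in vehicle wells. Lung cancer cell lines in 1536-well plates received compounds by pin tool one day after seeding, either one drug alone or a fixed anchor-drug dose plus five library-drug doses (not always all listed) in √10 steps. Nuclei were counted on 4× images after 5 days of treatment, and values are medians of duplicate plates.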

[2] = compound: C1CN(CCN1)C2=CC=C(C=C2)C3=CN4C(=C(C=N4)C5=CC=NC6=CC=CC=C56)N=C3 [DM3189] + Cc1nc(Nc2ncc(C(=O)Nc3c(C)cccc3Cl)s2)cc(N2CCN(CCO)CC2)n1 [Dasatinib] (partner 0.075 µM)
Procedure, shortened: as §1

[3] = compound: C1CN(CCN1)C2=CC=C(C=C2)C3=CN4C(=C(C=N4)C5=CC=NC6=CC=CC=C56)N=C3 [DM3189] + N=C(N)NC(=N)NCCc1ccccc1 [Phenformin] (partner 250 µM)
Procedure, shortened: as §1

[4] = compound: C1CN(CCN1)C2=CC=C(C=C2)C3=CN4C(=C(C=N4)C5=CC=NC6=CC=CC=C56)N=C3 [DM3189] + CS(=O)(=O)CCNCc1ccc(-c2ccc3ncnc(Nc4ccc(OCc5cccc(F)c5)c(Cl)c4)c3c2)o1 [Lapatinib] (partner 2 µM)
Procedure, shortened: as §1

[5] = compound: C1CN(CCN1)C2=CC=C(C=C2)C3=CN4C(=C(C=N4)C5=CC=NC6=CC=CC=C56)N=C3 [DM3189] + CS(=O)(=O)N1CCN(Cc2cc3nc(-c4cccc5[nH]ncc45)nc(N4CCOCC4)c3s2)CC1 [Pictilisib] (partner 1 µM)
Procedure, shortened: as §1

| Cell Line | relative viability ([1]; first compound 0.08 µM) | relative viability ([1]; first compound 0.253 µM) | relative viability ([1]; first compound 0.8 µM) | relative viability ([1]; first compound 2.53 µM) | relative viability ([2]; first compound 0.08 µM) | relative viability ([2]; first compound 0.253 µM) | relative viability ([2]; first compound 0.8 µM) | relative viability ([2]; first compound 2.53 µM) | relative viability ([3]; first compound 0.08 µM) | relative viability ([3]; first compound 0.253 µM) | relative viability ([3]; first compound 0.8 µM) | relative viability ([3]; first compound 2.53 µM) | relative viability ([4]; first compound 0.08 µM) | relative viability ([4]; first compound 0.253 µM) | relative viability ([4]; first compound 0.8 µM) | relative viability ([4]; first compound 2.53 µM) | relative viability ([5]; first compound 0.08 µM) | relative viability ([5]; first compound 0.253 µM) | relative viability ([5]; first compound 0.8 µM) | relative viability ([5]; first compound 2.53 µM) |
| --- | --- | --- | --- | --- | --- | --- | --- | --- | --- | --- | --- | --- | --- | --- | --- | --- | --- | --- | --- | --- |
| NCI-H1734 | 0.677 | 0.706 | 0.635 | 0.661 | 0.476 | 0.46 | 0.499 | 0.414 | 0.344 | 0.381 | 0.37 | 0.332 | 1.07 | 0.987 | 0.961 | 0.939 | 0.541 | 0.417 | 0.442 | 0.383 |
| NCI-H1755 | 0.848 | 0.877 | 0.815 | 0.926 | 0.429 | 0.401 | 0.388 | 0.411 | 0.698 | 0.589 | 0.511 | 0.566 | 1.07 | 0.937 | 0.811 | 0.936 | 0.51 | 0.417 | 0.334 | 0.399 |
| NCI-H1792 | 0.545 | 0.682 | 0.624 | 0.401 | 0.547 | 0.899 | 0.716 | 0.927 | 0.275 | 0.267 | – | 0.458 | 0.973 | 0.919 | 0.674 | 0.431 | 0.228 | 0.248 | 0.165 | 0.271 |
| NCI-H1793 | 0.758 | 0.877 | 0.982 | 1.16 | 0.423 | 0.368 | 0.371 | 0.361 | 0.397 | 0.412 | 0.415 | 0.344 | 0.653 | 0.773 | 1.01 | 0.711 | 0.311 | 0.306 | 0.281 | 0.31 |
| NCI-H1915 | 1.09 | 0.973 | 0.898 | 1.04 | 0.46 | 0.317 | 0.289 | 0.286 | 0.392 | 0.361 | 0.355 | 0.301 | 1 | 0.867 | 0.705 | 0.737 | 0.974 | 0.915 | 0.646 | 0.891 |
| NCI-H1944 | 0.884 | 0.817 | – | 0.806 | 0.232 | 0.217 | – | 0.219 | 0.237 | 0.192 | – | 0.192 | 0.884 | 0.765 | – | 0.803 | 0.405 | 0.336 | – | 0.389 |
| NCI-H1975 | 0.869 | 0.718 | 0.658 | 0.342 | 0.421 | 0.357 | 0.314 | 0.332 | 0.455 | 0.38 | 0.4 | 0.329 | 1.15 | 0.952 | 0.725 | 0.764 | 0.42 | 0.309 | 0.269 | 0.201 |
| NCI-H1993 | – | 0.671 | 0.641 | 0.7 | 0.657 | 0.552 | 0.505 | 0.504 | 0.473 | 0.481 | 0.527 | 0.566 | – | 0.533 | 0.722 | 0.746 | – | 0.85 | 0.852 | 0.718 |
| NCI-H2009 | 1.17 | 1.16 | 1.13 | 1.15 | 0.287 | 0.267 | 0.263 | 0.244 | 0.526 | 0.471 | 0.438 | 0.445 | 1.13 | 0.888 | 0.684 | 0.916 | 1 | 0.725 | 0.572 | 0.75 |
| NCI-H2023 | 0.586 | 0.633 | 0.574 | 0.63 | 0.781 | 0.595 | 0.363 | 0.46 | 0.368 | 0.363 | 0.428 | 0.347 | 1.1 | 0.739 | 0.503 | 0.286 | 0.26 | 0.24 | 0.201 | 0.235 |
| NCI-H2085 | 0.968 | 0.962 | 0.976 | 0.893 | 0.28 | 0.274 | 0.318 | 0.28 | 0.722 | 0.72 | 0.633 | 0.75 | 0.806 | 0.77 | 0.765 | 0.848 | 0.379 | 0.473 | 0.393 | 0.409 |
| NCI-H2087 | 1.31 | 1.07 | 1.01 | 1.03 | 0.97 | 0.77 | 0.784 | 0.768 | 0.457 | 0.495 | 0.437 | 0.418 | 1.27 | 0.871 | 0.846 | 1.06 | 1.06 | 0.808 | 0.675 | 0.818 |
| NCI-H2126 | 0.838 | 0.745 | 0.763 | 0.805 | 0.742 | 0.568 | 0.446 | 0.503 | 0.576 | 0.529 | 0.483 | 0.522 | 0.869 | 0.775 | 0.673 | 0.732 | 0.544 | 0.53 | 0.465 | 0.478 |
| NCI-H2170 | 0.96 | 0.854 | 0.734 | 0.641 | 0.718 | 0.466 | 0.591 | 0.515 | 0.435 | 0.367 | 0.361 | 0.397 | 0.277 | 0.256 | 0.256 | 0.268 | 0.308 | 0.301 | 0.288 | 0.291 |
| NCI-H2228 | 0.683 | 0.79 | 0.513 | 0.211 | 0.577 | 0.41 | 0.545 | 0.245 | 0.368 | 0.344 | 0.29 | 0.189 | 1.51 | 1.08 | 0.865 | 0.263 | 0.362 | 0.33 | 0.329 | 0.283 |
| NCI-H2347 | 0.969 | 1 | 0.989 | 1.14 | 0.261 | 0.384 | 0.341 | 0.284 | 0.399 | 0.45 | 0.53 | 0.434 | 1.09 | 0.866 | 0.703 | 0.97 | 0.493 | 0.452 | 0.569 | 0.517 |
| NCI-H2405 | 0.527 | 0.709 | 0.58 | 0.677 | 0.215 | 0.204 | 0.201 | 0.214 | 0.384 | 0.351 | 0.416 | 0.411 | 1.14 | 1.01 | 0.979 | 0.958 | 0.467 | 0.378 | 0.422 | 0.408 |
| NCI-H3122 | 0.656 | 0.74 | 0.701 | 0.739 | 0.853 | 0.639 | 0.757 | 0.708 | 0.405 | 0.334 | 0.355 | 0.333 | 0.976 | 1.02 | 0.911 | 0.878 | 0.568 | 0.466 | 0.601 | 0.502 |
| PC-3 [JPC-3] | 1.08 | 1.08 | 1.02 | 1.23 | 1.12 | 1.07 | 1.16 | 0.966 | 0.475 | 0.467 | 0.471 | 0.467 | 0.436 | 0.456 | 0.431 | 0.439 | 0.871 | 0.71 | 0.669 | 0.75 |
| PC-14 | 0.983 | 0.996 | 0.768 | 1.1 | 0.295 | 0.239 | 0.159 | 0.16 | 0.817 | 0.527 | 0.435 | 0.487 | 0.319 | 0.284 | 0.34 | 0.377 | 0.782 | 0.739 | 0.673 | 0.538 |
| RERF-LC-KJ | 0.932 | 0.829 | 0.895 | 0.937 | 1.03 | 0.891 | 0.744 | 0.943 | 0.451 | 0.4 | 0.407 | 0.426 | 0.965 | 0.954 | 0.843 | 0.854 | 0.585 | 0.694 | 0.602 | 0.562 |
| SK-LU-1 | 0.932 | 0.677 | 0.638 | 0.377 | 0.143 | 0.109 | 0.104 | 0.136 | 0.479 | 0.383 | 0.33 | 0.314 | 0.864 | 0.718 | 0.583 | 0.459 | 0.531 | 0.4 | 0.393 | 0.393 |
| SK-MES-1 | 0.937 | 0.873 | 0.738 | 0.782 | 0.322 | 0.263 | 0.265 | 0.237 | 0.679 | 0.62 | 0.587 | 0.662 | 0.458 | 0.416 | 0.456 | 0.402 | 0.305 | 0.3 | 0.289 | 0.319 |
| SW 1573 | 0.869 | 0.59 | 0.711 | 0.774 | 0.741 | 0.389 | 0.46 | 0.382 | 0.318 | 0.349 | 0.296 | 0.285 | 1.1 | 0.944 | 1.16 | 1.23 | 0.541 | 0.491 | 0.466 | 0.399 |
| UMC-11 | 0.994 | 0.998 | 0.794 | 0.749 | 0.467 | 0.429 | 0.467 | 0.401 | 0.348 | 0.321 | 0.349 | 0.356 | 1.2 | 1.04 | 0.868 | 0.751 | 0.836 | 0.795 | 0.764 | 0.702 |
